Among the data in US7704995B2 (Exelixis, Inc., priority 2003, dated 2010) are IC50 values, retold here.

This experiment addresses T1, Chk1 (Homo sapiens, UniProt O14757).
T1 construct: purchased Upstate Biotechnology
T1 sequence (O14757 1-476): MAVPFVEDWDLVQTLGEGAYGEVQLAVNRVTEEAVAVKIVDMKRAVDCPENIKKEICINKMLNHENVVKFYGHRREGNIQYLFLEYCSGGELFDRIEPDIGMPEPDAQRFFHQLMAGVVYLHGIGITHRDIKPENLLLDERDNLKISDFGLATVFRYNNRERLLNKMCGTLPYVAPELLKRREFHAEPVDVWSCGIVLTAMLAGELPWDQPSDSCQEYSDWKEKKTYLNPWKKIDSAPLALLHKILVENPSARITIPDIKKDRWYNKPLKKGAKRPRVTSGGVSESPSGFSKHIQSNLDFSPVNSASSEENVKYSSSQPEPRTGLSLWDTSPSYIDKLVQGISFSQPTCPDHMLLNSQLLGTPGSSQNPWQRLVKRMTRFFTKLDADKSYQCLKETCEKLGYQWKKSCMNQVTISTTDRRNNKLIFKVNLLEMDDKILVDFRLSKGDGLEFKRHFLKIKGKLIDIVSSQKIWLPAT
Nature of the experiment: Chk1 kinase assay: incorporation of γ-33P ATP into immobilized myelin basic protein. Type of experiment: biochemical. The settings on record: Table 11; Chk1 only; read-out: Chk1 IC50. In outline:
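Immobilized-MBP radiometric kinase assay, room temperature for 1 h; ATP 10 μM (Chk1, 10 nM enzyme) or 30 μM (Chk2, 20 nM enzyme) with 33P tracer. Values are IC50s, with Ki derived from them.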

For orientation: IC50 means the concentration at which inhibition is half-maximal.

SMILES strings stand for the structures.

In the case of `COC(=O)c1nc(-c2cccc(CNC3CCc4c(F)ccc(F)c43)c2)cnc1N` (stereo not shown) [Example 455, methyl 3-amino-6-(3-{[(4,7-difluoro-2,3-dihydro-1H-inden-1-yl)amino]methyl}phenyl)pyrazine-2-carboxylate], the IC50 lay within 50 to 1000 nM.
As to `CNC(=O)c1nc(-c2cccc(CNC3Cc4ccc(Br)cc4C3)c2)cnc1N` (stereo not shown) [Example 456, 3-amino-6-(3-{[(5-bromo-2,3-dihydro-1H-inden-2-yl)amino]methyl}phenyl)-N-methylpyrazine-2-carboxamide], the IC50 was in the range of 50 to 1000 nM.
The value for `CNC(=O)c1nc(-c2cccc(CNCc3cc(-c4cccs4)ccc3F)c2)cnc1N` [Example 457, 3-amino-6-{3-[({[2-fluoro-5-(2-thienyl)phenyl]methyl}amino)methyl]phenyl}-N-methylpyrazine-2-carboxamide] was 50 to 1000 nM; that for `C=Cc1ccc(CNCc2cccc(-c3cnc(N)c(C(=O)NC)n3)c2)c(F)c1` [Example 458, 3-amino-6-[3-({[(4-ethenyl-2-fluorophenyl)methyl]amino}methyl)phenyl]-N-methylpyrazine-2-carboxamide] was 50 to 1000 nM.
In the case of `CNC(=O)c1nc(-c2cccc(CNC3CC(C)c4c(F)ccc(F)c43)c2)cnc1N` (stereo not shown) [Example 459, 3-amino-6-(3-{[(4,7-difluoro-3-methyl-2,3-dihydro-1H-inden-1-yl)amino]methyl}phenyl)-N-methylpyrazine-2-carboxamide], the IC50 was 50 to 1000 nM.
With `CNC(=O)c1nc(-c2cccc(CN[C@H]3c4ccccc4C[C@H]3OC)c2)cnc1N` [Example 460, 3-amino-N-methyl-6-[3-({[(1S,2R)-2-(methyloxy)-2,3-dihydro-1H-inden-1-yl]amino}methyl)phenyl]pyrazine-2-carboxamide] the figure was 50 to 1000 nM.
The value for `CNC(=O)c1nc(-c2cccc(CNC3CCc4cc(Br)ccc43)c2)cnc1N` (stereo not shown) [Example 461, 3-amino-6-(3-{[(5-bromo-2,3-dihydro-1H-inden-1-yl)amino]methyl}phenyl)-N-methylpyrazine-2-carboxamide] was 50 to 1000 nM.
The value for `CNC(=O)c1nc(-c2cccc(CN[C@H]3CCc4cc(Br)ccc4C3)c2)cnc1N` [Example 462, 3-amino-6-[3-({[(2S)-6-bromo-1,2,3,4-tetrahydronaphthalen-2-yl]amino}methyl)phenyl]-N-methylpyrazine-2-carboxamide] was less than 50 nM.
Consider `CNC(=O)c1nc(-c2cccc(CN[C@@H]3CCc4cc(Br)ccc4C3)c2)cnc1N` [Example 463, 3-amino-6-[3-({[(2R)-6-bromo-1,2,3,4-tetrahydronaphthalen-2-yl]amino}methyl)phenyl]-N-methylpyrazine-2-carboxamide], for which the IC50 is 50 to 1000 nM.
As to `CNC(=O)c1nc(-c2cccc(CNC3CCc4cc(F)ccc43)c2)cnc1N` (stereo not shown) [Example 464, 3-amino-6-(3-{[(5-fluoro-2,3-dihydro-1H-inden-1-yl)amino]methyl}phenyl)-N-methylpyrazine-2-carboxamide], the IC50 lay in the range of 50 to 1000 nM.
In the case of `CNC(=O)c1nc(-c2cccc(CN[C@H]3Cc4ccc(Br)cc4C3)c2)cnc1N` [Example 465, 3-amino-6-[3-({[(2S)-5-bromo-2,3-dihydro-1H-inden-2-yl]amino}methyl)phenyl]-N-methylpyrazine-2-carboxamide], the IC50 was less than 50 nM.
As for `CNC(=O)c1nc(-c2cccc(CNC3Cc4cccc(F)c4C3)c2)cnc1N` (stereo not shown) [Example 466, 3-amino-6-(3-{[(4-fluoro-2,3-dihydro-1H-inden-2-yl)amino]methyl}phenyl)-N-methylpyrazine-2-carboxamide], the IC50 is less than 50 nM.
With `CNC(=O)c1nc(-c2cccc(CNC3Cc4c(F)cccc4C3O)c2)cnc1N` (stereo not shown) [Example 467, 3-amino-6-(3-{[(4-fluoro-1-hydroxy-2,3-dihydro-1H-inden-2-yl)amino]methyl}phenyl)-N-methylpyrazine-2-carboxamide] the figure was 50 to 1000 nM.
